Results published in patent US20140142185A1, “3-Benzyloxyphenyloxoacetic Acid Compounds for Reducing Uric Acid” (priority 2011, published 2014).
pIC50: −log10 of the molar value.

Molecular target: T1, Human URAT1 (Homo sapiens, UniProt Q96S37)
T1 construct: The full-length hURAT1 cDNA was obtained from the vector pCMV6-XL5 and subcloned into the expression vector pCMV6-Neo
T1 sequence (Q96S37 1-553): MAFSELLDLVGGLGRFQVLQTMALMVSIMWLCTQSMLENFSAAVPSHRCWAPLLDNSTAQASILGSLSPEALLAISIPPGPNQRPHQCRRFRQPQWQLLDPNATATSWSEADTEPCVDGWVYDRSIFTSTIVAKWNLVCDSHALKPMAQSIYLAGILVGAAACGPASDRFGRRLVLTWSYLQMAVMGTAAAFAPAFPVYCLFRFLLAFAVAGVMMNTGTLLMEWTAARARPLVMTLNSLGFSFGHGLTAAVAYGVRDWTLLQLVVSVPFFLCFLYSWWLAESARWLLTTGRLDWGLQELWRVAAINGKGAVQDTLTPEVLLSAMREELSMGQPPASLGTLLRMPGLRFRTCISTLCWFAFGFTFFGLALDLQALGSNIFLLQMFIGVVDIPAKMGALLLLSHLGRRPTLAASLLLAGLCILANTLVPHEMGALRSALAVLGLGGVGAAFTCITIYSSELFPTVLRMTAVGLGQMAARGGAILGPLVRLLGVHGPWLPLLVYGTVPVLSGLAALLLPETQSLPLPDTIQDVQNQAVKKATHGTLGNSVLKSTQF
Experiment: URAT1 inhibition assay: [8-14C] urate uptake in hURAT1-expressing HEK293 cells
Format: cell-based
Details: for inhibition at 10 µM: Human URAT1-Expressing HEK293 cells, 50 μM [8-14C] urate, 5 min, read-out: % Inhibition of uric acid uptake
Experimental: An in vitro URAT1 assay is useful for identifying compounds with potential activity in lowering serum uric acid. A suitable assay involves transfection of cells (e.g. human embryonic kidney cells; “HEK”) with a vector encoding human URAT1, followed by determination of the ability of transfected cells to take up radiolabeled uric acid. The activity of compounds as URAT1 inhibitors is evaluated by their ability to block uric acid uptake by transfected cells.
Plasmid vector pCMV6-XL5 containing hURAT1 cDNA (Cat. No. SC125624) and the expression vector pCMV6-Neo (Cat. No. pCMVNEO) were obtained from OriGene Technologies, Inc. The full-length hURAT1 cDNA was obtained from the vector pCMV6-XL5 and subcloned into the expression vector pCMV6-Neo to create the hURAT1 expression plasmid pCMV6-hURAT1. The sequences were verified by automatic DNA sequencing.
Human embryonic kidney 293 (HEK) cells (ATTCC, Cat No. CRL-1573) were cultured in EMEM supplemented with 10% FBS and 2 mM L-glutamine and incubated at 37° C. and 5% CO2. For transfection experiments, cells were plated on 60 mm dishes in 1 ml media per dish. After an 18-24 hour incubation, cells were transfected with plasmid pCMV6-hURAT1 or the expression vector pCMV6-Neo, using the Lipofectin trasfection agent following the manufacturer's instructions (Invitrogen, Cat. No. 18292). After transfection cells were grown in EMEM media for 72 hours and then by adding 1 mg/ml Geneticin (GIBCO, Cat. No 10131) stable transfectants were selected. […]
hURAT1-HEK cells and mock-HEK cells were plated in poly-D-Lysine Cell culture 24 well plates (Becton Dickinson, Cat. No. 354414) at a concentration of 3×10^5 in EMEM medium and incubated overnight. […] The cell lysates were transferred into the scintillation vials containing 1 ml of scintillation fluid (Opti Phase SuperMIX, PerkinElmer, Cat No. 1200-439) and the radioactivity was counted in the Microbeta counter (1450, Wallac Jet, PerkinElmer). […] The radioactivity values obtained for the wells that contained DMSO were taken as 100% uptake of the cells. […]

COc1ccc(C(=O)C(=O)O)cc1OCc1c(C)cccc1C [Cpd. FG, 2-(3-(2,6-dimethylbenzyloxy)-4-methoxyphenyl)-2-oxoacetic acid]
inhibition at 10 µM: 67.1%

Cc1ccc(C(=O)C(=O)O)cc1OCc1c(C)cccc1C [Cpd. FF, 2-(3-(2,6-dimethylbenzyloxy)-4-methylphenyl)-2-oxoacetic acid]
inhibition at 10 µM: 87.4% | pIC50 (uric acid uptake in hURAT1-HEK cells): 5.89
